Measurements taken from patent US20100197749A1, “CHEMICAL COMPOUNDS” (ASTRAZENECA AB, priority 2006, published 2010).

Molecular target: T1, EDG-1/S1P1 receptor (Homo sapiens, UniProt P21453)
T1 construct: expressed in transfected cells; host or cells: U2OS (human osteosarcoma), EDG-1 Transfluor U20S WT Clone #37
Assay: In Vitro Cell Based Receptor Activation Assay-Transfluor Assay
Conditions: inhibition of S1P-stimulated (375 nM or 750 nM) beta-arrestin GFP relocalization; EDG-1 Transfluor U20S WT Clone #37 cells
Description: The following assay can be used to measure the effects of the compounds of the present invention as S1P1/Edg1 inhibitors.
This cell-based assay was designed to assess the ability of small molecule antagonists to inhibit activation of the GPCR S1P1 in the presence of its cognate ligand S1P. The assay used technology initially developed by Norak Biosciences (Xsira Pharmaceutical) and presently owned by Molecular Devices. A human osteogenic sarcoma (U20S) cell line overexpressing the EDG-1/S1P1) receptor as well as a beta-arrestin/green fluorescent protein (GFP) construct hereafter termed EDG-1 Transfluor U20S WT Clone #37 was employed.
Using a high content screening approach (Cellomics Arrayscan), receptor activity was measured by assessment of the relocalization of beta-arrestin GFP in response to stimulation of EDG-1 by SIP. Specifically, EDG-1 Transfluor U20S WT Clone #37 cells were plated at a density of 6250 cells in 40 μL medium per well in 384 well plastic bottomed microtiter plates (BD Falcon) and incubated overnight at 37° C./5% CO2. Prior to screening, compounds were dissolved in 100% dimethyl sulfoxide (DMSO) to a final stock concentration of 10 mM. […] Plates were then sealed and analysed on the Cellomics Arrayscan using the GPCR signalling algorithm. EC50 values were then calculated using IDBS ActivityBase software.

EC50 [nM]	SMILES
133	CCn1c(OC)nnc1[C@@H](Cc1cccnc1)NS(=O)(=O)c1ccc(Cl)cc1 [Example 16, 4-Chloro-N-[(R)-1-(4-ethyl-5-methoxy-4H-[1,2,4]triazol-3-yl)-2-pyridin-3-yl-ethyl]benzenesulfonamide]
670	CCn1c(C(C)NS(=O)(=O)c2ccc(Cl)cc2)nnc1C(F)(F)F (centres unmarked) [Example 11, 4-Chloro-N-[1-(4-ethyl-5-trifluoromethyl-4H-[1,2,4]triazol-3-yl)-ethyl]-benzenesulfonamide]
